What was measured:
[1] = amount of alcoholic beverage drunk in a binge session after the drinking regulator; assay type: in vivo; conditions: 70 mg of drinking regulator; for amount of beer drunk in a binge session: reduced from 1.5 liter; for amount of wine drunk in a binge session: reduced from 1000 ml
Experimental: In exemplary embodiments, administration of the amount of 70 mg of drinking regulator selected form Compound 1 or Compound 2 described herein reduced the amount of beer drunk in a binge session from 1.5 liter to 0.5 liter, or the amount of wine drunk in a binge session from 1000 ml to 250 ml.

[2] = over six months, when used with counseling; cited from earlier work

SMILES	amount of beer drunk in a binge session [1]	amount of wine drunk in a binge session [1]	cut drinking [2]
COc1ccc2c(c1)CC(N)C2 (centres unmarked) [Compound 1, 5-methoxy-2-aminoindan]	0.5 L	250 mL	–
COc1cc2c(cc1OC)CC(N)C2 [Compound 2, 5,6-dimethoxy-2-aminoindan]	0.5 L	250 mL	–
C=C1CC[C@@]2(O)[C@H]3Cc4ccc(O)c5c4[C@@]2(CCN3CC2CC2)[C@H]1O5 [Nalmefene]	–	–	61%
